Patent publication US5556744A, “Methods and compositions for diagnosing and treating certain HIV infected patients” (The Trustees of the University of Pennsylvania, priority 1994, dated 1996)

Assays:
[1] = system: HIV-1 infected cells (MN isolate); assay: Anti-syncytial assay (inhibition of HIV-1 MN syncytium formation, SupT1 target cells); assay type: cell-based; conditions: HIV-1 MN, SupT1 cells, 3 days; vs normal human serum
From the text: (§1) The H9 cell line (a cutaneous T lymphoma line) infected by HIV-IIIB [ATCC CRL 8543] was used in the neutralization assay. The H9 cell line infected by HIV-MN was used in the anti-syncytial assays. SupT1 and Hut78 cells were used as the target cell lines for the anti-syncytial and neutralization assays. All cell lines were obtained from the National Institutes of Health AIDS Repository (Bethesda, Md.).
To analyze the effect of the maternal serum samples on HIV-1 fusion, SupT1 cells were used as target cells in an anti-syncytial assay. Dilutions of the different maternal serum samples were made in 96 well plates in RPMI 1640 media containing 10% fetal calf serum at final dilutions of 1:4, 1:8, 1:16, 1:32, 1:64, 1:128, 1:256 or 1:512. HIV-1 infected cells (MN isolate) were then plated in the wells at a density of approximately 10^4 cells per well. SupT1 target cells were then added at 5×10^5 /well and the number of syncytia are determined after 3 days of incubation. Inhibition of syncytium formation by a serum sample was considered significant if the dilution which yielded a 50% reduction in the number of syncytia when compared to control was greater than 1:32. The average number of syncytia in the control (normal human serum) wells at the above dilutions were: 45.5, 48.5, 44, 48, 48.5, 41.5, 42 and 45.5 respectively.

[2] = system: gp41 peptides; assay: Number of gp41 peptides bound by maternal sera (Examples 3, 4); assay type: binding, HIV-1 IIIB; conditions: Table 8
Protocol: (§2) Radioimmunoassay (RIA) and enzyme-linked immunosorbent assay (ELISA) were performed by standard methodologies [E. Engvall, Meth. Immunol., 70:419-439 (1980); S. K. Pierce et al, J. Exp. Med., 144:1254-1262 (1976)]. Peptides were dissolved in 0.05M carbonate-bicarbonate buffer (pH 9.6) at a concentration of 10 μg/ml. Fifty μl (500 ng) of the peptides were immobilized in 96 well polyvinylchloride plates (Dynatech Laboratories, Inc.) overnight at 4° C. Plates were washed and non-specific sites were blocked with PBS containing 1% BSA overnight at 4° C.
(§3) Dilutions of HIV positive maternal sera were made in blocking buffer at dilutions of 1:50 and 1:500 and incubated in peptide coated plates overnight at 4° C. Plates were washed with PBS and incubated with 75,000 cpm of ^125 I-labelled goat anti-human IgG. The antibody was iodinated by a chloramine T method [W. V. Williams et al, Proc. Natl. Acad. Sci. USA, 85:6488-6492 (1988)]. Plates were washed, dried and counted in a gamma counter to measure specific binding. Normal human serum (i.e., HIV seronegative) was used as a control.
(§4) Alternatively, ELISA assays were performed in polystyrene plates (Dynatech Laboratories, Inc) in which 0.05% Tween 20 (Sigma Chemical Co.) was included in the washing, blocking and dilution buffers. The secondary antibody used was goat […] Ig conjugated to horseradish peroxidase (HRP) (Sigma Chemical Co). The substrate used for color development was 3,3',5,5' tetramethyl-benzidine dihydrochloride (TMB) (Sigma Chemical Co). Absorbance of samples was measured in a Dynatech MR5000 (Dynatech Laboratories, Inc.) plate reader and expressed as an optical density at wavelength of 450 nm (OD450).
(§5) The results of the binding assays are represented in Tables 3, 4, 6 and 7. The following key is used for the designation of specific binding of the maternal sera samples to the peptides: The minus sign, -, is equivalent to the specific OD450 or cpm of sera sample binding to peptide divided by the specific OD450 or cpm of NHS sample binding to peptide, which value is less than 2. The plus sign, +, is equivalent to the specific OD450 or cpm of sera sample binding to peptide divided by the specific OD450 or cpm of NHS sample binding to peptide, which value is between 2 to 3. The double plus sign, ++, is equivalent to the specific OD450 or cpm of sera sample binding to peptide divided by the specific OD450 or cpm of NHS sample binding to peptide, which value is greater than 3.
(§6) Comparisons of number of peptides which bound maternal serum samples were made between the transmission group and the nontransmission group. The data was analyzed using the unpaired student's test. For the determination of differences in the binding of specific peptides between transmission and non-transmission groups, the Spearman's rank-order correlation test was performed.

[3] = system: gp120 peptides; assay: Number of gp120 peptides bound by maternal sera (Examples 3, 4); assay type: binding, HIV-1 IIIB; conditions: Table 8
Protocol: as §2, §3, §4, §5, §6

[4] = system: HIV-IIIB viral isolate; assay: Neutralization assay (HIV-IIIB, Hut-78 cells, p24 antigen ELISA); assay type: cell-based, HIV-1 IIIB; set-up: key to Neutralization Activity, Dilution Resulting in ≥50% Inhibition: --: (-) indicates negative (i.e. a dilution of <1:10); conditions: HIV-IIIB, Hut-78 cells, p24 OD450 after 6 days; vs normal human serum
Protocol: as §1
In a neutralization assay, 20 μl of maternal sera samples was placed in 96 round bottom well plates at final dilutions of 1:10, 1:90 and 1:810 in RPMI. The HIV-IIIB viral isolate was diluted in RPMI to a TCID50 of 100 units/ml. Twenty μl of the virus solution was placed in each well and the plate was incubated for one hour at 4° C. Hut-78 cells were incubated with 2 μg/ml of polybrene for one hour at 37° C. in a CO2 incubator. The HUT-78 cells were washed and resuspended in fresh RPMI to a final concentration of 4×10^6 cells/ml. Ten μl of the cell suspension was added to each well and the plate was incubated for one hour in a 37° C., CO2 incubator.
Fifteen μl of the serum/cell/virus solution was aliquoted to a new plate containing 200 μl of fresh RPMI and incubated for 6 days. After 6 days, 100 μl was used to analyze for p24 antigen. The p24 capture ELISA assay kit (Coulter Corporation, Hialeah, Fla.) was used to perform the measurements.
Further, sera samples at the same dilutions as described above were tested for residual p24 core protein or antibody to insure the results were due only to viral infection.

| Substance | Anti-Syncytial Activity, Dilution Resulting in ≥50% Inhibition [1] | Number of gp41 Peptides Bound (+ or ++) [2] | Number of gp120 Peptides Bound (+/++) [3] | Neutralization Activity, Dilution Resulting in ≥50% Inhibition [4] |
| --- | --- | --- | --- | --- |
| 17: gp120 peptide, amino acids 267-282, SEQ ID NO:111 (EEEVVIRSVNFTDNAK) [Peptide 17] | 1:256 | 4 | 5 | 1:810 |
| HP1: gp120 peptide, amino acids 93-107, SEQ ID NO:99 (FNMWKNDMVEQMHED) | 1:64 | 6 | 6 | -- |
| HP2: gp120 peptide, amino acids 98-112, SEQ ID NO:100 (NDMVEQMHEDIISLW) | 1:32 | 2 | 4 | -- |
| HP3: gp120 peptide, amino acids 102-116, SEQ ID NO:101 (EQMHEDIISLWDQSL) | 1:256 | 2 | 4 | 1:90 |
| HP5: gp120 peptide, amino acids 105-117, SEQ ID NO:102 | 1:128 | 0 | 4 | -- |
| HP7: gp120 peptide, amino acids 107-121, SEQ ID NO:103 (DIISLWDQSLKPCVK) | 1:64 | 3 | 3 | 1:810 |
| HP9: gp120 peptide, amino acids 141-155, SEQ ID NO:104 (NSSSGRMIMEKGEIK) | 1:256 | 1 | 3 | 1:810 |
| HP10: gp120 peptide, amino acids 157-171, SEQ ID NO:105 (CSFNISTSIRGKVQK) | 1:256 | 0 | 2 | -- |
